{
  "source": "paper PMC10382584",
  "about": "“Macrocyclization of linear molecules by deep learning to facilitate macrocyclic drug candidates discovery” (Nature Communications, 2023)",
  "key": {"HEL cells": {"system": "HEL cells", "assay": "Cell proliferation assay (CCK-8), HEL cells", "assay_type": "cell-based, human", "settings": "for Inhibition (%): single wells, replicates 1 and 2"}, "JAK2": {"molecular_target": "T1, JAK2 (Homo sapiens, UniProt O60674)", "T1 construct": "0.05–0.42 ng JAK2, 2 μM peptide substrate (Tyr06)", "T1 sequence (O60674 whole entry)": "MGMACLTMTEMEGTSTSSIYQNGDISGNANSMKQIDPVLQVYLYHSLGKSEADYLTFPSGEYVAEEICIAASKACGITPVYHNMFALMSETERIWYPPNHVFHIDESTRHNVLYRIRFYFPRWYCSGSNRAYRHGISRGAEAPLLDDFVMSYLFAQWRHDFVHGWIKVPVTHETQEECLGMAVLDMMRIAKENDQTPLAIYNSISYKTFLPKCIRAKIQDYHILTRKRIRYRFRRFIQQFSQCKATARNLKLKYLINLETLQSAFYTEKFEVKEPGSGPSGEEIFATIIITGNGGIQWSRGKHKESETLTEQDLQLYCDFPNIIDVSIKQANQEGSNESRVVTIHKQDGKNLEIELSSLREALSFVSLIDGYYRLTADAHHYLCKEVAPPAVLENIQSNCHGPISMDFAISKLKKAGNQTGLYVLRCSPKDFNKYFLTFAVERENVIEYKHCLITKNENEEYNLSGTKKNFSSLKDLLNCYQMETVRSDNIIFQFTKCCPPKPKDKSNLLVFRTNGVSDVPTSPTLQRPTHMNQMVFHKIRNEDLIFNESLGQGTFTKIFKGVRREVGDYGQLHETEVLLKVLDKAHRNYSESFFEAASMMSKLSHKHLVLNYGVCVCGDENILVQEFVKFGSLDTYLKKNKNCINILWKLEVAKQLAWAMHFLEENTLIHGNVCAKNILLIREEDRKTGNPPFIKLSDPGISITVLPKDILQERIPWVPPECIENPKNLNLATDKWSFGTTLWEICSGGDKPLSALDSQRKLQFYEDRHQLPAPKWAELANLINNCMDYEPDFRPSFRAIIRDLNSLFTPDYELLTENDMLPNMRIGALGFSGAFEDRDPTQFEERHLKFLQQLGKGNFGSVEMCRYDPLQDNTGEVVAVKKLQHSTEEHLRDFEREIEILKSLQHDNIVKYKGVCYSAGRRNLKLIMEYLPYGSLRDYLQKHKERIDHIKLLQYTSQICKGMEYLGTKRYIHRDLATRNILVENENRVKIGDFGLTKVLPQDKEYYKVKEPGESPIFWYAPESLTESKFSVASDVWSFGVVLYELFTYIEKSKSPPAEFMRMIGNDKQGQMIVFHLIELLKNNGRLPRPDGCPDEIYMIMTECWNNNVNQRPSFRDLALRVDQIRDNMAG", "assay": "JAK2 enzyme assay (Z'-LYTE kinase assay kit)", "assay_type": "biochemical", "procedure": "JAK kinase activity assays were performed using Z’-LYTETM kinase assay kit (Life Technologies, pv4122). […] The mixture was added into the 384-well microplate, shaken gently, and then incubated at room temperature for 1 h. Subsequently, 5 μL development solution was added to the well for incubating another 1 h. Finally, 5 μL stop reagent was added to stop the reaction. […] IC50 values were calculated using GraphPad Prism v8.0.3, and three parallel experiments were performed."}, "DSS-induced colitis mice": {"system": "DSS-induced colitis mice", "assay": "In vivo efficacy study, DSS-induced colitis model", "parameters": "species or system male BALB/c mice", "settings": "for DAI score (Fig. 6b) / Body weight (Fig. 6a): Compound 3 5 mg/kg, individual mice"}, "[1]": {"settings": "3.5% DSS colitis mice, compound 3 5 mg/kg, Fedratinib 10 mg/kg, intragastric, day 8 to day 14"}},
  "note": "Where “and” joins values, the source holds several entries; their conditions need not be identical. Identical values can stand only once. Like-named read-outs stand apart in the source and are kept apart here.",
  "data": [
    {"smiles": "Cc1cnc2nc1Nc1cccc(c1)COCC=CCOCc1cc(ccc1OCCN1CCCC1)N2", "note": "[Compound 3]", "values": [
      {"measurement": "Inhibition (%)", "setting": "HEL cells; HEL cell lines, 0.0977 μM", "result": "7.532% and 3.479% and 4.355% and 9.373% and 0.491% and 6.308%"},
      {"measurement": "Inhibition (%)", "setting": "HEL cells; HEL cell lines, 0.1953 μM", "result": "13.777% and 7.751% and 6.875% and 6.544% and 1.513% and 5.600%"},
      {"measurement": "Inhibition (%)", "setting": "HEL cells; HEL cell lines, 0.3906 μM", "result": "19.145% and 12.682% and 3.259% and 5.522% and 6.779% and 5.600%"},
      {"measurement": "Inhibition (%)", "setting": "HEL cells; HEL cell lines, 0.7813 μM", "result": "21.994% and 15.749% and 13.120% and 10.788% and 3.085% and 13.618%"},
      {"measurement": "Inhibition (%)", "setting": "HEL cells; HEL cell lines, 1.5625 μM", "result": "37.004% and 30.321% and 23.090% and 24.936% and 24.700% and 25.722%"},
      {"measurement": "Inhibition (%)", "setting": "HEL cells; HEL cell lines, 3.1250 μM, 3.125 µM", "result": "60.340% and 50.260% and 45.440% and 49.460% and 46.787% and 48.123%"},
      {"measurement": "Inhibition (%)", "setting": "HEL cells; HEL cell lines, 6.2500 μM, 6.25 µM", "result": "81.375% and 75.240% and 74.473% and 74.140% and 73.276% and 76.577%"},
      {"measurement": "Inhibition (%)", "setting": "HEL cells; HEL cell lines, 12.5000 μM, 12.5 µM", "result": "87.949% and 81.375% and 82.142% and 84.437% and 81.607% and 79.564%"},
      {"measurement": "IC50", "setting": "HEL cells; HEL cell lines, mean of 2 replicates, read-out: IC50/μM mean, cellular antiproliferative activity", "result": 3.05, "unit": "µM"},
      {"measurement": "IC50", "setting": "HEL cells; HEL cell lines, single-replicate fits, read-out: IC50/μM (individual replicates), cellular antiproliferative activity", "result": "3.33 µM and 2.78 µM"},
      {"measurement": "IC50", "setting": "HEL cells; HEL cells, 72 h, mean ± SD, read-out: Cellular Antiproliferative Activity (IC50) HEL", "result": "3.06 ± 0.39", "unit": "µM"},
      {"measurement": "IC50", "setting": "JAK2; JAK2, 25 μM ATP, mean ± SD, n = 3, read-out: Enzyme Inhibitory Activity (IC50)", "result": 0.006, "unit": "µM"},
      {"measurement": "IC50", "setting": "JAK2; JAK2 enzyme, mean of 3 replicates, read-out: IC50/μM mean, enzyme inhibitory activity", "result": 0.006, "unit": "µM"},
      {"measurement": "IC50", "setting": "JAK2; JAK2 enzyme, mean ± SD of 3 replicates, read-out: IC50/μM mean ± SD, enzyme inhibitory activity", "result": "0.006 ± 0.001", "unit": "µM"},
      {"measurement": "IC50", "setting": "JAK2; JAK2 enzyme, single-replicate fits (replicates 1-3), read-out: IC50/μM (individual replicates), enzyme inhibitory activity", "result": "0.00662 µM and 0.00532 µM and 0.00569 µM"},
      {"measurement": "histological scores (H&E, Ameho criteria)", "setting": "DSS-induced colitis mice; 3.5% DSS colitis mice, compound 3 5 mg/kg, Fedratinib 10 mg/kg", "result": "lower"},
      {"measurement": "body weight change", "setting": "DSS-induced colitis mice; [1]", "result": "alleviate the decrease of body weight"},
      {"measurement": "disease activity index (DAI) scores", "setting": "DSS-induced colitis mice; [1]", "result": "significantly decreased"},
      {"measurement": "ratio of colon weight to length", "setting": "DSS-induced colitis mice; 3.5% DSS colitis mice, compound 3 5 mg/kg, Fedratinib 10 mg/kg, compared to the model group", "result": "decreased"},
      {"measurement": "DAI score (Fig. 6b)", "setting": "DSS-induced colitis mice; day 0", "result": 0},
      {"measurement": "Body weight (Fig. 6a)", "setting": "DSS-induced colitis mice; day 0, 5 mg/kg", "result": "21.4 and 20.3 and 22.6 and 21.9 (2×) and 23.4 and 23.9 and 21.5"},
      {"measurement": "DAI score (Fig. 6b)", "setting": "DSS-induced colitis mice; day 1, 5 mg/kg", "result": "0 (7×) and 1"},
      {"measurement": "Body weight (Fig. 6a)", "setting": "DSS-induced colitis mice; day 1, 5 mg/kg, in g (unit assumed)", "result": "22.2 and 21 and 23.1 and 22.4 and 23.5 and 21.4 and 24.6 and 22.7"},
      {"measurement": "DAI score (Fig. 6b)", "setting": "DSS-induced colitis mice; day 2, 5 mg/kg", "result": "2 and 0 (5×) and 1 (2×)"},
      {"measurement": "Body weight (Fig. 6a)", "setting": "DSS-induced colitis mice; day 2, 5 mg/kg, in g (unit assumed)", "result": "21.8 and 22.8 and 22.4"},
      {"measurement": "DAI score (Fig. 6b)", "setting": "DSS-induced colitis mice; day 3, 5 mg/kg", "result": "0 (5×) and 2 (3×)"},
      {"measurement": "DAI score (Fig. 6b)", "setting": "DSS-induced colitis mice; day 4, 5 mg/kg", "result": "2 (4×) and 0 and 1 (2×) and 3"},
      {"measurement": "Body weight (Fig. 6a)", "setting": "DSS-induced colitis mice; day 4, 5 mg/kg, in g (unit assumed)", "result": "23.2 and 19.6 and 22.9 and 22.3 and 22.4 and 22 and 21.1 and 22.5"},
      {"measurement": "DAI score (Fig. 6b)", "setting": "DSS-induced colitis mice; day 5, 5 mg/kg", "result": "3 (2×) and 5 and 1 (3×) and 6 and 2"},
      {"measurement": "Body weight (Fig. 6a)", "setting": "DSS-induced colitis mice; day 5, 5 mg/kg, in g (unit assumed)", "result": "23 and 19.1 and 22 and 19.4 and 20.5 and 20.9 and 20.6 and 21.4"},
      {"measurement": "DAI score (Fig. 6b)", "setting": "DSS-induced colitis mice; day 6, 5 mg/kg", "result": "4 (2×) and 5 and 1 (2×) and 2 and 7 and 6"},
      {"measurement": "Body weight (Fig. 6a)", "setting": "DSS-induced colitis mice; day 6, 5 mg/kg, in g (unit assumed)", "result": "22.2 and 18.3 and 21.8 and 20.1 and 18.5 and 18.4 and 20.2 and 21.3"},
      {"measurement": "DAI score (Fig. 6b)", "setting": "DSS-induced colitis mice; day 7, 5 mg/kg", "result": "7 (3×) and 2 (2×) and 6 and 3 and 4"},
      {"measurement": "Body weight (Fig. 6a)", "setting": "DSS-induced colitis mice; day 7, 5 mg/kg, in g (unit assumed)", "result": "20.9 and 16.9 and 20.5 and 19.8 and 16.7 and 16.5 and 20.1 and 19.7"},
      {"measurement": "DAI score (Fig. 6b)", "setting": "DSS-induced colitis mice; day 8, 5 mg/kg", "result": "0 (3×) and 5 and 3 (2×) and 1 (2×)"},
      {"measurement": "Body weight (Fig. 6a)", "setting": "DSS-induced colitis mice; day 8, 5 mg/kg, in g (unit assumed)", "result": "20.9 and 15.8 and 22.3 and 21.2 and 16.4 and 21.3 and 21.8"},
      {"measurement": "DAI score (Fig. 6b)", "setting": "DSS-induced colitis mice; day 9, 5 mg/kg", "result": "1 and 0 (5×) and 2"},
      {"measurement": "Body weight (Fig. 6a)", "setting": "DSS-induced colitis mice; day 9, 5 mg/kg, in g (unit assumed)", "result": "20.2 and 15.8 and 22.7 and 22.9 and 16.5 and 21.9 and 22"},
      {"measurement": "DAI score (Fig. 6b)", "setting": "DSS-induced colitis mice; day 10, 5 mg/kg", "result": "1 (4×) and 2 (3×)"},
      {"measurement": "Body weight (Fig. 6a)", "setting": "DSS-induced colitis mice; day 10, 5 mg/kg, in g (unit assumed)", "result": "19.5 and 15.3 and 22.2 and 22.8 and 16.1 and 21.9 and 22.6"},
      {"measurement": "DAI score (Fig. 6b)", "setting": "DSS-induced colitis mice; day 11", "result": 0},
      {"measurement": "Body weight (Fig. 6a)", "setting": "DSS-induced colitis mice; day 11, 5 mg/kg", "result": "20.1 and 15.7 and 22 (2×) and 22.9 and 16.7 and 22.8"},
      {"measurement": "DAI score (Fig. 6b)", "setting": "DSS-induced colitis mice; day 12, 5 mg/kg", "result": "0 (6×) and 1"},
      {"measurement": "Body weight (Fig. 6a)", "setting": "DSS-induced colitis mice; day 12, 5 mg/kg, in g (unit assumed)", "result": "21 and 16.6 and 22.3 and 23 and 17.2 and 22.1 and 22.9"},
      {"measurement": "Body weight (Fig. 6a)", "setting": "DSS-induced colitis mice; day 13, 5 mg/kg, in g (unit assumed)", "result": "21.7 and 17.7 and 21.8 and 23.1 and 18 and 22.3 and 22.6"}
    ]}
  ]
}
